Test results from ChEMBL document CHEMBL5465560, “Selectivity Literature for EUbOPEN Chemogenomic Library” (2024).
Blank lines part the entries; values can stand above or below the molecule they belong to.

Legend:
[1] = molecular target: Ribosomal protein S6 kinase beta-1 (Homo sapiens, UniProt P23443); experiment: Selectivity interaction (ActivX KiNativ screen (kinase selectivity in THP-1 cell lysates)) EUB0000639a RPS6KB1; type: subcellular; conditions: lysate, at 0.01 µM
[2] = molecular target: T1, Serine/threonine-protein kinase PLK4 (Homo sapiens) (UniProt O00444); experiment: Selectivity interaction (LanthaScreen Eu Kinase Binding Assay) EUB0001632a PLK4; conditions: at 10 µM
T1 sequence (whole entry): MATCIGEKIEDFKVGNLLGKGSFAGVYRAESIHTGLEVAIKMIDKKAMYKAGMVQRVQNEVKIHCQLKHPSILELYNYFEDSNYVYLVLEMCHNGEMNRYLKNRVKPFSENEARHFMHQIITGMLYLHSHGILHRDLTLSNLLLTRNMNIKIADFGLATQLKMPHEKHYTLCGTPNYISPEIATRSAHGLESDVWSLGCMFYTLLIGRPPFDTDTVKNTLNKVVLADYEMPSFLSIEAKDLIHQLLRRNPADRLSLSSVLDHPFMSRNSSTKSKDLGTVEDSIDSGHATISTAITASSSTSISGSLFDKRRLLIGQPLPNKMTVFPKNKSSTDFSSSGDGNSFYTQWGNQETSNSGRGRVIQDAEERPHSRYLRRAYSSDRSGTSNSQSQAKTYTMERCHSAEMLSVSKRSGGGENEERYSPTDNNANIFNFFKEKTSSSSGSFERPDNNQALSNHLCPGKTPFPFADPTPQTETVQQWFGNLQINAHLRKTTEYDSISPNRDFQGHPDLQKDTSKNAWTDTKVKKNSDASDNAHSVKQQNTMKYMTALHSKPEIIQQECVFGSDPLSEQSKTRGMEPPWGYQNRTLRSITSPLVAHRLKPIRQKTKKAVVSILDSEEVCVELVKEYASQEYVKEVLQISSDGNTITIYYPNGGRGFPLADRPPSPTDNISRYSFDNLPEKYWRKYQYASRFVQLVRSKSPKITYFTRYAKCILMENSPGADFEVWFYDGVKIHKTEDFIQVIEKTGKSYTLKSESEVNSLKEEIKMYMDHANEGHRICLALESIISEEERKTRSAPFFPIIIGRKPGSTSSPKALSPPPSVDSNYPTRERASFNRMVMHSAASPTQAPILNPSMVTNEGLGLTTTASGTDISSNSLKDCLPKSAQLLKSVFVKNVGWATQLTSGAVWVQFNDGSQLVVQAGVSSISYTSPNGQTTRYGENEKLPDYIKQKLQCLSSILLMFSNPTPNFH

[3] = molecular target: T2, Serine/threonine-protein kinase TBK1 (Homo sapiens) (UniProt Q9UHD2); experiment: Selectivity interaction (KinomeScan (DiscoverX)) EUB0000695a TBK1; conditions: at 100 nM
T2 sequence (whole entry): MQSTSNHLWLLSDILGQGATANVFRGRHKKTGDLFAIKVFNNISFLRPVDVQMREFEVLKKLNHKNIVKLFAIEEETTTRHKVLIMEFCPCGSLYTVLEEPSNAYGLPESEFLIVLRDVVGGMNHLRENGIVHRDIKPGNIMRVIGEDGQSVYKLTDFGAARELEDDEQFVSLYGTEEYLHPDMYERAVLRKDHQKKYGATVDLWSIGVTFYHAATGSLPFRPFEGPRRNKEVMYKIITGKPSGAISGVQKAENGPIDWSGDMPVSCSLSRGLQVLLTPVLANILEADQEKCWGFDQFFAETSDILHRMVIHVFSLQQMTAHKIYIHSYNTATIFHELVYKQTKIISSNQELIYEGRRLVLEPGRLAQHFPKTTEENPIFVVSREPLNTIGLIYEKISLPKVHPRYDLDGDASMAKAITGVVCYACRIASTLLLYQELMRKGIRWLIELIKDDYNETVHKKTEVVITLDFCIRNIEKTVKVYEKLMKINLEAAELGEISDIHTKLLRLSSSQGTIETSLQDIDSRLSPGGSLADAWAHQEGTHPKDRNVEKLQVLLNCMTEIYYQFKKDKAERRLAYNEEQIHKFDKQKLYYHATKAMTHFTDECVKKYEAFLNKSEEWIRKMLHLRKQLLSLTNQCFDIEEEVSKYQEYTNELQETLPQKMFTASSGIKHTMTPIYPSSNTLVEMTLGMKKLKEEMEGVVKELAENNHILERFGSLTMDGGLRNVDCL

[4] = molecular target: Epidermal growth factor receptor (Homo sapiens, UniProt P00533); conditions: at 10 µM
Epidermal growth factor receptor, sequence (P00533 whole entry): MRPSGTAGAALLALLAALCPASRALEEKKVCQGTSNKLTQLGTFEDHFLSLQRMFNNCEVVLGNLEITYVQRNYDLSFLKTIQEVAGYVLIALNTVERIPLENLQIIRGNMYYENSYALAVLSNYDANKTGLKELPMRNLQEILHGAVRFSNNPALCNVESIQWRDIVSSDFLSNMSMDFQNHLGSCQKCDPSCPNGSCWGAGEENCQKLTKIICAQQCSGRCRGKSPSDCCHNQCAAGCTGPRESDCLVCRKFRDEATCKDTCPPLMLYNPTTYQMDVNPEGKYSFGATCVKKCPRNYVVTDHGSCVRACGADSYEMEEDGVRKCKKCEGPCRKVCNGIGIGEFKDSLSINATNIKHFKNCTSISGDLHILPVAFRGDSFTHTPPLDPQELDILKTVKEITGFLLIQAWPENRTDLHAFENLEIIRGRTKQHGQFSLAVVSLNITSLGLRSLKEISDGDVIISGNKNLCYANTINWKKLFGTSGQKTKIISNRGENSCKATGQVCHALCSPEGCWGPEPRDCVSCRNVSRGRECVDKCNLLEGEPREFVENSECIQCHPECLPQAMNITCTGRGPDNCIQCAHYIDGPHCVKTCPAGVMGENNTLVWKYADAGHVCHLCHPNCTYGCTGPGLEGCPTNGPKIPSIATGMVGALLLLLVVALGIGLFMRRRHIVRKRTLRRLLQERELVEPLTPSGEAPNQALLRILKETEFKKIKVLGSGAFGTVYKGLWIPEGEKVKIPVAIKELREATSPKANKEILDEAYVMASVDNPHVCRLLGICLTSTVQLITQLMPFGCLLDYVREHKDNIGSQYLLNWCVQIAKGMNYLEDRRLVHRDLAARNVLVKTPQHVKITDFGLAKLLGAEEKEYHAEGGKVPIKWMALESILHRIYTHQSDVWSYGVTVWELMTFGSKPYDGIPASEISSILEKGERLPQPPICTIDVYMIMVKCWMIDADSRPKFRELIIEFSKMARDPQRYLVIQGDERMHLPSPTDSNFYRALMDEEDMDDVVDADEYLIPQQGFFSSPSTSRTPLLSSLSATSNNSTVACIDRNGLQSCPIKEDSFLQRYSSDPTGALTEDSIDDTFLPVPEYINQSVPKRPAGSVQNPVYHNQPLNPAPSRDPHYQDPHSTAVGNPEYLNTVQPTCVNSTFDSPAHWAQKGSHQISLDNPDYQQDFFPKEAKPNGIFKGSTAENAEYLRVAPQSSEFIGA

[5] = molecular target: T3, Eukaryotic elongation factor 2 kinase (Homo sapiens) (UniProt O00418); experiment: Selectivity interaction (SelectScreen profiling (Invitrogen)) EUB0000607a EEF2K; conditions: at 2 µM
T3 sequence (whole entry): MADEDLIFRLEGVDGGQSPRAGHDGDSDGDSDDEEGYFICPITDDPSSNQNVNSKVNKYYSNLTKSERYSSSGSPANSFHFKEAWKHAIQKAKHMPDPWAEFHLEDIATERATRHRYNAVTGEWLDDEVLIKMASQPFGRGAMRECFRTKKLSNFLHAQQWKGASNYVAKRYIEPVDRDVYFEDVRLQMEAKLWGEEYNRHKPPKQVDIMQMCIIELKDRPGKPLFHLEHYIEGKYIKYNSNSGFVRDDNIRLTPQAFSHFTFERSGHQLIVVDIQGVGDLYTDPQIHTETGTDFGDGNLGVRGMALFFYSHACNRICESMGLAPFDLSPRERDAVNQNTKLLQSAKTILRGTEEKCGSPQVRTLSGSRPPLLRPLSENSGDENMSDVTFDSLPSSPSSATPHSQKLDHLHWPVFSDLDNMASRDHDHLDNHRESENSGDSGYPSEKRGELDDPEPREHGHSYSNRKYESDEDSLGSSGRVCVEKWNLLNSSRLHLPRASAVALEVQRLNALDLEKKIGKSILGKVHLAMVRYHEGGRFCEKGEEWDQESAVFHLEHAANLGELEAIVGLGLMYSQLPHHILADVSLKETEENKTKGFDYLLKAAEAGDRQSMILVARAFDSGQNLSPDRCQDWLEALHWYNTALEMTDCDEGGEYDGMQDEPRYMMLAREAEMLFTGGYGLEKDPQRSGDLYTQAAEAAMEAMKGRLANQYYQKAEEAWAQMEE

Ribosomal protein S6 kinase beta-1, sequence (P23443 whole entry, looked up): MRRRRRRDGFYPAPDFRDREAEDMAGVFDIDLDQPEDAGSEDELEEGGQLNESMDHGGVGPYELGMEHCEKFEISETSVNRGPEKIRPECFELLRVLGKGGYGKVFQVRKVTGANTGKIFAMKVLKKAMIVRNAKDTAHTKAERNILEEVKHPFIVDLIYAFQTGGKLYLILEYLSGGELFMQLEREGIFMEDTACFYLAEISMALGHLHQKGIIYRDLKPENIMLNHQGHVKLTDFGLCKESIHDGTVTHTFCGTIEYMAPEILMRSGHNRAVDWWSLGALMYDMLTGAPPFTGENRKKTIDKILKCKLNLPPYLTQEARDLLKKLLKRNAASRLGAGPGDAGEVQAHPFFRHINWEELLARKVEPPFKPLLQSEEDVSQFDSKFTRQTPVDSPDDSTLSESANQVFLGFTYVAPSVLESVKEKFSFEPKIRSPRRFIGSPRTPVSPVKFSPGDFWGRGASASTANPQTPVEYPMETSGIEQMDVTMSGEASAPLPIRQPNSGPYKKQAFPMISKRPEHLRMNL

% of inhibition [1]: -0.4%
SMILES: CC[C@@H]1[C@H](F)C(=O)N[C@@H]1COc1nccc2cc(C(N)=O)c(OC)cc12 [ZIMLOVISERTIB]

% of inhibition [2]: 0.376%
SMILES: Cn1cc(-n2cnc3c(NCc4nc5cc(Cl)c(Cl)cc5[nH]4)nc(N4CCOCC4)nc32)cn1

SMILES: Cc1cc(F)c(C(=O)Nc2cccc(-c3nncn3C(C)C)n2)cc1-n1cnc(C2CC2)c1
% of control [3]: 90%

SMILES: COCC(=O)NC/C=C/c1ccc2ncnc(Nc3ccc(Oc4ccc(C)nc4)c(C)c3)c2c1 [CP-724714]
% of control [4]: 0.2%

SMILES: CNC(=O)Nc1ccc(-c2nc(N3CC4CCC(C3)O4)c3cnn(C4CCC5(CC4)OCCO5)c3n2)cc1
% of inhibition [5]: 1%
